“Also recorded” adds a separate entry of the source.
What was measured:
[1] = test system: MCF-7/HER-2 cells; conditions: xenografts in nude mice; cited from earlier work
[2] = clinic; cited from earlier work
[3] = test system: MCF-7 parental cells; conditions: xenografts in nude mice; cited from earlier work
[4] = test system: MAPK, ERK-1 (p44) and ERK-2 (p42); assay: Estrogen-induced phosphorylation of MAPK in MCF-7 parental cells, Western blot; assay type: cell-based, human; conditions: for E2-induced rapid phosphorylation of ERK-1 and ERK-2 after pre-incubation: 1000 nM, in presence of estradiol (E2)
Protocol: ERD inhibition of phosphorylation of MAPK, at both extracellular signal-regulated kinases ERK-1 (p44) and ERK-2 (p42) and downstream effects. […] Thus, we measured estrogen-induced phosphorylation of MAPK by established methods (9,15,16). Briefly, MCF-7 parental cells were estrogen deprived for 48 hrs, then treated with 1 nM estradiol-17β in the presence of new compounds (10 nM-10 μM) to be tested for antagonist activity. After treatments, cell lysates were separated by SDS-PAGE followed by Western blot using a polyclonal antibody directed to phospho-p44/p42 MAP kinase (Thr202/Tyr204) (Cell Signaling). Immunodetection with antibody against total p44/p42 (Cell Signaling) was done as a control for gel loading. […] E2 but not vehicle (CN) induced rapid phosphorylation of ERK-1 (p44) and ERK-2 (p42). This activation was prevented when cells were pre-incubated with 1000 nM ICI 182,780 (ICI; Faslodex) or 1000 nM compound S15 in the presence of estradiol (E2).

[5] = biological target: T1, estrogen receptor-alpha (Homo sapiens, UniProt P03372); assay: Western immunoblot of ERα protein levels in MCF-7 cells after 48 hrs; assay type: cell-based; conditions: 1 μM or 10 μM, in presence of 1 nM estradiol-17β
T1 construct: MCF-7 breast cancer cells with high expression of ERα protein were treated with estradiol-17β; endogenous in cells; host or cells: MCF-7 human breast cancer cells
T1 sequence (P03372 1-595): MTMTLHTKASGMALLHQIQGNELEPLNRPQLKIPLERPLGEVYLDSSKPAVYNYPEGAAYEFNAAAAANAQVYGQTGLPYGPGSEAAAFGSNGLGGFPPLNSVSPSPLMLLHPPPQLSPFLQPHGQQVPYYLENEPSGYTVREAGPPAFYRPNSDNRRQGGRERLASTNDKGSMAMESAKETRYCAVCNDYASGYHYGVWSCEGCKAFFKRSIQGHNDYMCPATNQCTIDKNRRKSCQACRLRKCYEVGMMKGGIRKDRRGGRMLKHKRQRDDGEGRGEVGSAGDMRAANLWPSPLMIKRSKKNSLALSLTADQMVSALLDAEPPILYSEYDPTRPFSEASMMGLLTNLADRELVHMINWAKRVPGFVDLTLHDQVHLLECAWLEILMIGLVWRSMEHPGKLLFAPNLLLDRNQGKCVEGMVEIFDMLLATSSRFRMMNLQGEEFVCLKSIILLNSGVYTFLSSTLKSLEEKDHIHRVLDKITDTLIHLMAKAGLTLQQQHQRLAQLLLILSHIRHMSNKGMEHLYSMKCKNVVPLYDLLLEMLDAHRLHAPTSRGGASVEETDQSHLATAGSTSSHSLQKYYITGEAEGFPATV

[6] = test system: human MCF-7 breast cancer cells; assay: MCF-7 cell proliferation, BrdU ELISA, in presence of 1 nM estradiol-17β; assay type: cell-based; conditions: for inhibition of MCF-7 cell proliferation/survival: 1 μM or 50 μM, in presence of 1 nM estradiol-17β, 72 hr; for effectiveness compared with fulvestrant in MCF-7 proliferation: same doses in vitro (1 μM or 50 μM)
Protocol: In experiments to assess potential proliferative effects of novel estrogen receptor ligands, human breast cancer cells were grown in phenol red-free, estrogen-free media with 1% dextran-coated charcoal-treated (DCC)-fetal bovine serum (FBS) for 48 hrs (15,44), then treated with either 1 μM or 50 μM doses of estrogen receptor antagonists in the presence of 1 nM estradiol-17β. Cell counts and viability tests (Trypan blue) were done every 24 hr for 3 days. After 72 hr, proliferation was assessed using the BrdU Cell proliferation ELISA (Roche). Cell numbers were also assessed initially by cell counts to confirm ELISA data. Each antiestrogen was tested at least in three different experiments.
In order to assess the antitumor action of novel estrogen receptor antagonists, we cultured human MCF-7 breast cancer cells with known expression of ERα. […] Cell proliferation is expressed as percentage of that determined in the 1 nM estradiol-17β-treated control group.

[7] = test system: ER+ early breast cancer; conditions: cited from earlier work
[8] = biological target: T2, estrogen receptor (Homo sapiens, UniProt P03372); assay: Specific [3H]estradiol-17β binding in MCF-7 parental cells; conditions: 10 μM compound, 2 nM [3H]estradiol-17β
T2 construct: endogenous in cells; host or cells: MCF-7 parental breast cancer cells
T2 sequence (P03372 1-595): T1 sequence (P03372 1-595)
Protocol: Specific estradiol binding: Specific estradiol-17β (E2) binding was assessed in MCF-7 parental breast cancer cells as before (14-16). Briefly, cells were incubated with 2 nM [^3H]estradiol-17β and varying concentrations (1 nM-10 μM) of new estrogen receptor downregulator (ERD) analogues. The efficiency of the binding of compounds was measured by the loss of radioactivity of the [^3H]estradiol-17β. A 100-fold molar excess of unlabeled E2 was present with [3H]estradiol-17β in paired samples for determination of displaceable binding. […] Compounds S1-S14 are test compounds different from the exemplified compounds described herein.

[9] = biological target: T3, ER protein (Homo sapiens, UniProt P03372); assay: ER down-regulation, Western immunoblot of ER (66 kD) in MCF-7 cells; assay type: cell-based; conditions: 24 hours, 10, 100 and 1000 nM
T3 construct: endogenous in cells; host or cells: MCF-7 breast tumor cells
T3 sequence (P03372 1-595): T1 sequence (P03372 1-595)
From the text: ER down-regulation: To determine if selected compounds can down-regulate ER protein, we treated cells for 24-48 hrs in vitro with candidate compounds at varying doses. Then, cells were disrupted and prepared for PAGE and Western immunoblots using anti-ERα antibodies (see FIG. 6). […] Those ERDs with optimal activity in down-regulating ER were investigated further in the chemistry laboratory to further refine and develop such agents.

[10] = test system: human non-small cell lung cancer cells A549; assay: A549 non-small cell lung cancer cell proliferation, MTS assay; assay type: cell-based; conditions: 1 μM or 10 μM, 72 hours, compared with fulvestrant
Protocol: Cell counts and viability tests (Trypan blue) were done every 24 hours for 3 days. After 72 hours, proliferation was assessed using the CellTiter 96™ AQueous One Solution Cell Proliferation Assay (MTS) from Promega. Cell numbers were also assessed initially by cell counts to confirm ELISA data. Each antiestrogen was tested in at least in three independent experiments.

| Structure (SMILES) | sensitivity of MCF-7/HER-2 tumors [1] | growth of parent MCF-7 tumors [3] | E2-induced rapid phosphorylation of ERK-1 and ERK-2 after pre-incubation [4] | ERα protein expression in MCF-7 cells [5] | inhibition of MCF-7 cell proliferation/survival [6] | effectiveness compared with fulvestrant in MCF-7 proliferation [6] | further results |
| --- | --- | --- | --- | --- | --- | --- | --- |
| C[C@]12CC[C@@H]3c4ccc(O)cc4C[C@@H](CCCCCCCCC[S+]([O-])CCCC(F)(F)C(F)(F)F)[C@H]3[C@@H]1CC[C@@H]2O (stereo partly drawn) [fulvestrant] | partially sensitive | suppressed | prevented |  |  |  | bioavailability [2]: very low bioavailability; also recorded: low bioavailability |
| C[C@]12C[C@H](Oc3ccc(N)c(C(F)(F)F)c3)[C@@H]3c4ccc(O)cc4CC[C@H]3[C@@H]1CC[C@@H]2O [JD128, (8S,9S,11S,13S,14S,17S)-11-(4-Amino-3-(trifluoromethyl)phenoxy)-13-methyl-7,8,9,11,12,13,14,15,16,17-decahydro-6H-cyclopenta[a]phenanthrene-3,17-diol] |  |  |  | greatest effect at suppressing estrogen receptor-alpha expression | significant inhibition | more effective than the ER-downregulator fulvestrant |  |
| CC/C(=C(\c1ccccc1)c1ccc(OCCN(C)C)cc1)c1ccccc1 [tamoxifen] | insensitive | suppressed |  |  |  |  | reduction in disease recurrence [7]: 39%; reduction in mortality [7]: 31% |
| C[C@]12C[C@H](Oc3ccc(N)cc3)[C@@H]3c4ccc(O)cc4CC[C@H]3[C@@H]1CC[C@@H]2O [JD105, (8S,9S,11S,13S,14S,17S)-11l-(4-aminophenoxy)-13-methyl-7,8,9,11,12,13,14,15,16,17-decahydro-6H-cyclopenta[a]phenanthrene-3,17-diol] |  |  | prevented |  |  |  | suppression of specific binding of [3H]estradiol-17β [8]: suppressed; suppression of specific binding of [3H]estradiol-17β ([8]; listed as S15): suppressed effectively; inhibition of estrogen-induced phosphorylation of MAPK (ERK-1 p44 and ERK-2 p42) ([4]; 1 nM estradiol-17β): inhibits phosphorylation of MAPK; effectiveness compared with fulvestrant in inhibiting estrogen-induced MAPK phosphorylation ([4]; breast tumor cells in vitro): as effective as fulvestrant; ER protein levels in MCF-7 cells [9]: reduces ER protein levels |
| C[C@]12C[C@H](Oc3ccc(NC(=O)CCCCN4CCCCC4)c(F)c3)[C@@H]3c4ccc(O)cc4CC[C@H]3[C@@H]1CC[C@@H]2O [JD140, N-(4-(((8S,9S,11S,13S,14S,17S)-3,17-Dihydroxy-13-methyl-7,8,9,11,12,13,14,15,16,17-deca-hydro-6H-cyclopenta[a]phenanthren-11-yl)oxy)-2-fluorophenyl)-5-(piperidin-1-yl)pentan-amide] |  |  |  | down-regulated | significant inhibition | more effective than the ER-downregulator fulvestrant | antiproliferative effects in A549 cells [10]: significant antiproliferative effects |

Reference: patent publication US10400006B2, “Estrogen receptor modulators” (THE REGENTS OF THE UNIVERSITY OF CALIFORNIA, priority 2014, dated 2019)
